The record followed here is patent US9221833B2, “Antiviral compounds” (GILEAD PHARMASSET LLC, priority 2011, dated 2015).

The structures appear in SMILES notation. Where two headings read alike, the source gives them in different places.

The subject of data set [1] is genotype 1b Con1 replicon. Put plainly: microbe, parasite or virus in culture. Format: cell-based, HCV. The settings on record: read-out: 1b.
The subject of data set [2] is genotype 2a JFH-1 replicon (L31 present in NS5A). Briefly: microbe, parasite or virus in culture. The class given is cell-based, HCV. To be noted: genotype 2a JFH replicon, read-out: 2a JFH. Background: In antiviral work, replicon cells carry a viral genome segment that copies itself.
The subject of data set [3] is genotype 2b MD2b-1 strain NS5A gene (M31 present). Briefly: microbe, parasite or virus in culture. The class given is cell-based, HCV.
Data set [4] deals with genotype 2a J6 strain NS5A gene (M31 present). Put plainly: Replicon assay, NS5A chimeric 2a JFH-1 replicon with 2a J6 NS5A, transient (t) or stable (s), Huh-Lunet cells. To be noted: transiently transfected cells (t). The class given is cell-based, HCV.
In data set [5] the test system is genotype 3a S52 strain NS5A gene. Briefly: Replicon assay, NS5A chimeric 1b Con1 replicon with 3a NS5A, transiently transfected Huh-Lunet cells. Format: cell-based, HCV. To be noted: genotype 3a, read-out: 3a.
In data set [6] the test system is Q30R in genotype 1a NS5A. Briefly: Antiviral potency against resistance mutant, 1a Pi-Rluc replicon in Huh-7-derived cured-51 cells. The class given is cell-based, HCV. The settings on record: genotype 1a Q30R resistance mutant, read-out: 1a Q30R.
The nature of data set [7]: IV and PO Single Dose Pharmacokinetic Studies in SD Rats. The settings on record: oral bioavailability, PO 2 mg/kg vs IV infusion 1 mg/kg. The class given is in vivo, male Sprague-Dawley (SD) rats. Here is the method: IV and PO Single Dose Pharmacokinetic Studies in SD Rats: The pharmacokinetics of selected compounds was characterized in male Sprague-Dawley (SD) rats (250-300g). […] The intravenous (IV) dosing vehicle was 5% ethanol, 35% polyethylene glycol 400 (PEG 400) and 60% water pH 2.0. […] Serial blood samples (approximately 0.3 mL each) were collected from jugular vein or other suitable vein at specified time points. […] The blood samples were collected into Vacutainer™ tubes containing EDTA-K3 as the anti-coagulant and were centrifuged at approximately 4° C. to obtain plasma. The plasma samples were stored at −20° C. until analysis by LC/MS/MS. […] Standard curve and quality control samples were prepared in male rat plasma and processed in the same way as the test samples to generate quantitative data. […] Values below the lower limit of quantification (LLOQ) were assigned a value of zero if predose and treated as missing thereafter. Area under the curve (AUC) was calculated using the linear trapezoidal rule. The oral bioavailability (% F) was determined by comparison of the area under the curve (AUC) of the compound and/or a metabolite generated in plasma following oral administration to that generated following intravenous administration.

Take `COC[C@H]1C[C@@H](c2nc3ccc4cc5c(cc4c3[nH]2)OCc2cc(-c3cnc([C@@H]4CC[C@H](C)N4C(=O)[C@@H](NC(=O)OC)C(C)C)[nH]3)ccc2-5)N(C(=O)[C@@H](NC(=O)OC)[C@@H](C)OC)C1` [Example OM, Methyl {(2S)-1-[(2S,4S)-2-(5-{2-[(2S,5S)-1-{(2S,3R)-3-methoxy-2-[(methoxycarbonyl)amino]butanoyl}-4-(methoxymethyl)pyrrolidin-2-yl]-1,11-dihydroisochromeno[4′,3′:6,7]naphtho[1,2-d]imidazol-9-yl}-1H-imidazol-2-yl)-5-methylpyrrolidin-1-yl]-3-methyl-1-oxobutan-2-yl}carbamate]: the EC50 in data set [1] is 0.019 nM; in data set [2] (EC50 range class) it was < 1 nM; in data set [2] it was 0.009 nM; in data set [3] (genotype 2b, EC50 range class, transiently transfected cells (t), if unavailable stably replicating cells (s), read-out: 2b), < 1 nM; in data set [3] (stably replicating cells (s), read-out: 2b (s)), 0.054 nM; in data set [3] (transiently transfected cells (t), read-out: 2b (t)), 0.053 nM. Also, the EC50 is < 1 nM in data set [4] (genotype 2a J6, EC50 range class, if unavailable stably replicating cells (s), read-out: 2a J6); 0.045 nM in data set [4] (read-out: 2a J6 (t)); < 1 nM in data set [5] (EC50 range class); 0.035 nM in data set [5]; < 1 nM in data set [6] (EC50 range class); 0.035 nM in data set [6]. Moreover, the “Rat % F” value in data set [7] came to 12.2%.
